Reference: ChEMBL document CHEMBL1153676, “Muscarinic receptor probes based on amine congeners of pirenzepine and telenzepine” (Bioorg Med Chem Lett, 1992)

Experiments:
[1] = target: T1, Muscarinic acetylcholine receptor M1 (Rattus norvegicus) (UniProt P08482); assay: Percent reduction in specific binding of 0.5 nM [3H]N-methylscopolamine (NMS) to rat forebrain membranes following a 30 min pre-incubation at concentration of 0.5 uM; assay type: cell membranes; conditions: Membrane
T1 sequence (whole entry): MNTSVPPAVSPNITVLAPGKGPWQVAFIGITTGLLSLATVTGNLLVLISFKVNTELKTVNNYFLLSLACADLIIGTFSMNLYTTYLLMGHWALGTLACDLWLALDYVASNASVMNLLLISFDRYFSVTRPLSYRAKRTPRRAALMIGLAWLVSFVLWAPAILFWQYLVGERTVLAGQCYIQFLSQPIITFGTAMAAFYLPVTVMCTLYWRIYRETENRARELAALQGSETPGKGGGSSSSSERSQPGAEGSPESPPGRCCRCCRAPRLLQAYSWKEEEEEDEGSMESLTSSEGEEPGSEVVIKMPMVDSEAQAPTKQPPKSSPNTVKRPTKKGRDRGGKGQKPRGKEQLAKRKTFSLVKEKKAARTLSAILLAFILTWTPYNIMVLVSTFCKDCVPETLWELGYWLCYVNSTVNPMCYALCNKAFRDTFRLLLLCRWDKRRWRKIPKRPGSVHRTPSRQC

[2] = target: T2, Muscarinic acetylcholine receptor M1 (Rattus norvegicus, UniProt P08482); assay: Inhibitory concentration was evaluated for irreversible inhibition at rat forebrain muscarinic receptor
T2 sequence (P08482 whole entry): T1 sequence (whole entry)

[3] = target: T3, Muscarinic acetylcholine receptor M2 (Rattus norvegicus, UniProt P10980); assay: Inhibitory constant by the inhibition of [3H]N-methylscopolamine (NMS) binding to Muscarinic acetylcholine receptor M2 of rat heart
T3 sequence (P10980 whole entry): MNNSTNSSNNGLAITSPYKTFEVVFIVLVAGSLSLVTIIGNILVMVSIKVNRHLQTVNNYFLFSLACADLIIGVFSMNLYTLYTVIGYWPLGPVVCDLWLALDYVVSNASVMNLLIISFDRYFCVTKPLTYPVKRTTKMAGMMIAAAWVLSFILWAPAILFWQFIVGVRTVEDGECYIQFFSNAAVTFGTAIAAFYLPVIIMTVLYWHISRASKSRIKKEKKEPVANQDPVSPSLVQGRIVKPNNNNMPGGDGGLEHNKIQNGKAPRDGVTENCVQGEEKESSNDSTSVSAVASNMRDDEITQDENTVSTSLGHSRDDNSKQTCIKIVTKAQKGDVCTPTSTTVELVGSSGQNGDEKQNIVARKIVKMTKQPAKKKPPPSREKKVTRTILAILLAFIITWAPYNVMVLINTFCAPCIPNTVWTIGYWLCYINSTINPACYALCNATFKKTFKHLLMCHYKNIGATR

Row | Structure (SMILES) | Reduction [1] [%] | IC50 [2] [nM] | Ki [3] [nM]
1 | O=C1Nc2cccnc2N(C(=O)CN2CCN(CCCCCCCCNC(=S)Nc3cccc(N=C=S)c3)CC2)c2ccccc21 | 51.1 |  | 
2 | O=C1Nc2cccnc2N(C(=O)CN2CCN(CCCCCCCCCCNC(=S)Nc3cccc(N=C=S)c3)CC2)c2ccccc21 | 76 | 0.15 | 
3 | O=C1Nc2cccnc2N(C(=O)CN2CCN(CCCCCCCCCNC(=S)Nc3cccc(N=C=S)c3)CC2)c2ccccc21 | 48.7 |  | 
4 | Cc1scc2c1N(C(=O)CN1CCN(CCCCCCCCCCN)CC1)c1ccccc1NC2=O |  |  | 3.7
